Marks after values point to notes of the source that are not given here.
Columns and labels:
human bladder cells = assay: Bladder cell growth, basal and testosterone-stimulated; format: cell-based
bladder = assay: Bladder outlet obstruction (BOO) rat model, cystometry and bladder weight; format: in vivo; conditions: BOO rats, 150 μg/Kg daily, 2 weeks
Method: • Female Sprague-Dawley rats, weighing 200-250 g 1.2. Grouping • Group A: BOO rats, treated with Compound A over 2 weeks, beginning at day 1 after creation of the obstruction (n=12) • Group B: BOO rats, treated with vehicle over 2 weeks, beginning at day 1 after creation of the obstruction (n=12) • Group C: Sham operated rats, treated with Compound A over 2 weeks, beginning at day 1 after surgery (n=12) 1.3. Studies: • a) Cystometry (˜18 hours after last administration of the drug/vehicle, 12 hours after removal of the obstructing ligature) under conscious conditions. • b) Measurements of bladder weight • c) In vitro investigations 2. Methods 2.1. Bladder Outlet Obstruction (BOO):
The bladder and urethrovesical junction were exposed through a lower abdominal midline incision. A 0.9 mm metal rod was placed alongside the proximal urethra and a 3-0 silk ligature was tied tightly around the urethra and the rod, which was consequently be removed. Sham surgery was be performed accordingly, without placing the ligature. After 13 days the ligature was be removed and a catheter was be inserted into the bladder dome and tunneled subcutaneously.
The following morning after insertion of the catheter, the cystometric investigation was performed without any anesthesia or restraint in a metabolic cage. The amount of voided urine was measured by means of a fluid collector, connected to a force displacement transducer. The bladder was continuously filled with saline at room temperature. The catheter was also connected to a pressure transducer. After a stabilization period of 30-60 minutes, when reproducible voiding patterns are achieved, the following parameters were recorded over a period of 30 minutes: Basal bladder pressure, micturition pressure, threshold pressure, micturition interval and volume, and non-voiding contractions. The amount of residual urine was investigated manually 3 times, at the end of the cystometry. Bladder capacity was calculated based on the measured values.
The validated bladder outlet obstruction rat model described above was used to test the ability of Compound A to control and treat bladder dysfunction. The objective was to evaluate whether a vitamin D3 analogue (1-alpha-fluoro-25-hydroxy-16,23e-diene-26,27-bishomo-20-epi-cholecalciferol—compound “A”) at the dose of 150 μg/Kg/daily) can prevent bladder hypertrophy and bladder dysfunction such as bladder overactivity.
In this model a ligature was surgically placed around the outlet of the catheterized bladder, so that when the catheter was removed, the bladder experienced increased urethral resistance. The rats underwent continuous cystometry to evaluate bladder function. In addition the contractile properties of isolated bladder preparation in response to nerve stimulation and exogenous stimuli in vitro were investigated under electrical field stimulation (EFS).
The following cystometric parameters were investigated (see FIGS. 12-16): • micturition pressure (the maximum bladder pressure during micturition), • bladder capacity (residual volume after voiding plus the volume of saline infused to induce the void) • micturition volume (volume of the expelled urine) • residual urine (bladder capacity minus micturition volume) and • frequency and amplitude of spontaneously occurring changes intravesical pressure (non-voiding contractions).

BPH cells = assay: In situ end labeling (ISEL) of apoptotic BPH cells; format: cell-based, human
Method: Human BPH cells, prepared, maintained and used as previously described in Crescioli C, et al. Journal of Clinical and Endocrinology Metabolism (2000) 85 p 2576-2583, were obtained from prostate tissues derived from 5 patients, who underwent suprapubic adenomectomy for BPH, after informed consent and approval by the Local Ethical Committee.
ISEL was performed onto BPH cells using Apop Tag in situ apoptosis detection kit peroxydase following the manufacturer's instruction. Cells were incubated with T (10 nM), KGF (10 ng/ml) or Des(1-3)IGF-I (10 ng/ml) with or without Compound A (10 nM). The percentage of apoptotic cells (the number of stained cells divided by the total number of cells) was calculated in at least five separate fields per slide in five different slides. Results are expressed as mean±SEM from three separate experiments.

[1] = system: prostate volume in patients with BPH; assay: Randomised double blind placebo controlled study in patients with BPH; format: in vivo, human
Method: A randomised double blind placebo controlled parallel group study was performed to determine the effect of Compound A (1-alpha-fluoro-25-hydroxy-16,23E-diene-26,27-bishomo-20-epi-cholecalciferol) in patients with BPH.
The principal inclusion criterion was that male patients be diagnosed with BPH and have prostate volume >40 ml as determined by transrectal ultrasound (TRUS).
Statistical methods: primary efficacy analyses were planned on Per-Protocol (PP) Population and, as support, the same analyses were to be done on Intent-to-treat population. Patients evaluatable for the Per-Protocol analysis were all randomized patients compliant to protocol criteria who completed the whole course of study without major protocol violations and have valid assessments of prostate volume. Patients valid for intent-to-treat (ITT) population were all randomized patients who received at least one dose of trial medication and for whom the prostate volume at baseline and at 12 weeks visit were available.
All patients randomized who took at least one dose of study drug were evaluated for safety analysis.
The primary efficacy variable was the percentage change of prostate volume, measured by centralized MRI axial scanning. An ANOVA model was used for the analysis, with treatment and center as fixed effects.
Study participants received 150 μg capsule (as per Example 4A with drug omitted in the case of placebo) once daily in the morning. The treatment period was 12 weeks.

## C=C1/C(=C\C=C2/CCC[C@]3(C)C([C@@H](C)C/C=C/C(O)(CC)CC)=CC[C@@H]23)C[C@@H](O)C[C@@H]1F [Compound A, 1-alpha-fluoro-25-hydroxy-16,23E-diene-26,27-bishomo-20-epi-cholecalciferol]
Human bladder cells
  inhibition of basal and testosterone-stimulated growth of bladder cells: effective in inhibiting
Human bladder cells; T 10 nM, F 1 nM
  effect on bladder cell growth compared with finasteride: significantly greater than that of the anti-androgen finasteride
bladder
  bladder weight: slight decrease
  micturition pressure: significant differences versus vehicle
  residual urine: absent
  spontaneous non-voiding contraction amplitude: significant differences versus vehicle
  spontaneous non-voiding contraction frequency: significant differences versus vehicle
BPH cells; 48 h, Compound A 10 nM, T 10 nM, GFs 10 ng/ml
  change in percentage of apoptotic nuclei vs untreated cells: 270%
BPH cells; Compound A 10 nM alone, ISEL
  Apoptotic index (%): 68.44 ± 1.26^a %
BPH cells; Compound A 10 nM with Des(1-3)IGF-I 10 ng/ml
  Apoptotic index (%): 45.85 ± 0.66^a,b,c %
BPH cells; Compound A 10 nM with GFs or T
  increase in number of ISEL-positive BPH cells in the presence of GFs or T: more than 250%
BPH cells; Compound A 10 nM with KGF 10 ng/ml
  Apoptotic index (%): 44.46 ± 0.57^a,b,c %
BPH cells; Compound A 10 nM with T 10 nM
  Apoptotic index (%): 49.06 ± 1.87^a,b,c %
[1]; 12 weeks
  severe adverse events: no severe adverse event was reported
[1]; ITT population
  proportion of responders: 28.8%
[1]; ITT population, axial scanning
  reduction of prostate volume vs placebo: more effective than placebo
[1]; PP population
  mean difference of prostate volume vs baseline in non responder patients: 3.93±0.8
  mean difference of prostate volume vs baseline in unchanged patients: −0.35±2.3
  mean reduction of prostate volume vs baseline in responder patients: −6.88±2.5
  percentage change of prostate volume, paraxial acquisition: −1.30±6.9%
  percentage change of prostate volume, transitional scanning: −0.22±9.6%
  proportion of patients not responder: 7.5%
  proportion of responders: 27.5%
  proportion of unchanged patients: 65%
[1]; PP population, 150 μg once daily, 12 weeks, MRI
  percentage change in prostate volume, axial scanning: −1.89±5.2%
[1]; PP population, axial scanning, 95% confidence limit −9.54 and −4.94
  estimate of difference between treatments (Compound A minus placebo), percentage change in prostate volume: −7.24
[1]; safety population
  number of patients with adverse events related to treatment: 3
  patients with adverse events related to treatment: 5.26%
[1]; safety population, 57 randomised
  number of patients with at least one adverse event: 17
[1]; vs Placebo group
  calciuria values over the course of the study: did not differ significantly

— patent US7332482B2, “Method for treating benign prostatic hyperplasia” (BioXell S.p.A., priority 2003, dated 2008)
